From US10239882B2, “Substituted 5-methyl-[1,2,4]triazolo[1,5-a]pyrimidin-2-amine compounds as PDE2 inhibitors” (DART NEUROSCIENCE (CAYMAN) LTD., priority 2014, dated 2019)
pIC50: −log10 of the molar value.

target: FLAG-tagged PDE2A1 (amino acids 2-941) (Homo sapiens (Human), UniProt O00408); experiment: IMAP TR-FRET PDE2A enzymatic assay; type: biochemical; settings: 200 nM FAM-cAMP substrate, 11-point half-log dose-response
Source text: An IMAP TR-FRET-based phosphodiesterase assay was developed using the PDE2A isoform. IMAP technology is based on high-affinity binding of phosphate by immobilized metal (MIII) coordination complexes on nanoparticles. The IMAP “binding reagent” recognizes phosphate groups on AMP or GMP generated from cAMP or cGMP in a PDE reaction. Cyclic nucleotides that carry a phosphodiester bond and not a free phosphate are not recognized by the binding reagent. The time resolved fluorescence resonance energy transfer (TR-FRET) is afforded by a Terbium (Tb)-Donor pre-bound to the nanoparticles. FRET occurs when the fluorescent-labeled AMP or GMP product of a PDE reaction binds and comes into close proximity to the Tb-Donor complex. Due to the long lifetime of Tb fluorescence, detection can be run in time-resolved mode to reduce or eliminate interference from auto-fluorescent compounds.
The IMAP TR-FRET PDE2A assay was performed in 1536-well white plates. A total of 250 pg per well of FLAG-tagged PDE2A1 (amino acids 2-941) was dispensed in 2.5 μL IMAP assay buffer consisting of 10 mM Tris pH 7.2, 10 mM MgCl2, 1 mM DTT, and 0.1% fatty acid free BSA. 30 nL of compound was then added from 1 mM stocks in DMSO using a Kalypsys Pintool. Plates were incubated for 5 min at room temperature before dispensing 1.5 μL of 533 nM FAM-cAMP substrate for a final concentration of 200 nM. Following a brief centrifugation, plates were incubated for 30 min at room temperature. The assay was terminated by adding 5 μL IMAP binding reagent Tb complex to each well which was prepared according to manufacturer's recommendations (Molecular Devices). Plates were incubated an additional 90 minutes at room temperature and read on a Viewlux plate reader. All compounds were solvated at a concentration of 10 mM in DMSO and tested in 11-point half-log dose-response. Curve fitting and IC50 values were determined using a standard four parameter fit.

FLAG-tagged PDE2A1 (amino acids 2-941), sequence (O00408 2-941): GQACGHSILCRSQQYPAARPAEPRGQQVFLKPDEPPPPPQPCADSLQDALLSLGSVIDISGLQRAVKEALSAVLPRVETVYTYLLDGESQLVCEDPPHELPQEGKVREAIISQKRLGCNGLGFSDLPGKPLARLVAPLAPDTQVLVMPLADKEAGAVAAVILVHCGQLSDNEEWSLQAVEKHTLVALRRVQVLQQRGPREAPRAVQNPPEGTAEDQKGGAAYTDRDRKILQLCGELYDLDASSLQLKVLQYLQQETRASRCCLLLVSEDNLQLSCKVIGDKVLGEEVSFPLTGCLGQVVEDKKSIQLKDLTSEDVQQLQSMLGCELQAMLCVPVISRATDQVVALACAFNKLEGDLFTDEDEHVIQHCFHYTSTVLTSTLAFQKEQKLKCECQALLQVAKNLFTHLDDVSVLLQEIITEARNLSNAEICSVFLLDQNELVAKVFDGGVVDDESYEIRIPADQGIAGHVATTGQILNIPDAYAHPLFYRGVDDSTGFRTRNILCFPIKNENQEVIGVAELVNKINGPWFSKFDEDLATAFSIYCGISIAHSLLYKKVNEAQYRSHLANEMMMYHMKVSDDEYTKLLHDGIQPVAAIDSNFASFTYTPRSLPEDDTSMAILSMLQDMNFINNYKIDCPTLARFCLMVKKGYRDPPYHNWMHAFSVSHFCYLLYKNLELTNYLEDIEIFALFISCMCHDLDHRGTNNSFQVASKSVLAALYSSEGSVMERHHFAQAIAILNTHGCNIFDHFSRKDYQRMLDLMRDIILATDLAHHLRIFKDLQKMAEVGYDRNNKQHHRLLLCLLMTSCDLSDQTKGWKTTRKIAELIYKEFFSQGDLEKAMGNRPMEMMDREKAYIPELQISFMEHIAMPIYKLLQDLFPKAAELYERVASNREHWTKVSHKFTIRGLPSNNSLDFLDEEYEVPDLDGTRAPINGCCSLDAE

| SMILES | PDE2 (PIC50) |
| --- | --- |
| COc1ccc(CNc2nc3nc(C)cc(C4CCOCC4)n3n2)cc1C(F)F [Example 25, N-{[3-(Difluoromethyl)-4-methoxyphenyl]methyl}-5-methyl-7-(oxan-4-yl)-[1,2,4]triazolo[1,5-a]pyrimidin-2-amine] | >7 |
| Cc1cc(C(C)C)n2nc(NCc3cn(-c4ccccc4)nc3C)nc2n1 [Example 74, 5-Methyl-N-[(3-methyl-1-phenyl-H-pyrazol-4-yl)methyl]-7-(propan-2-yl)-[1,2,4]triazolo[1,5-a]pyrimidin-2-amine] | >7 |
| COc1cc(F)c(CNc2nc3nc(C)cc(C4CCOCC4)n3n2)c(F)c1 [Example 50, N-[(2,6-Difluoro-4-methoxyphenyl)methyl]-5-methyl-7-(oxan-4-yl)-[1,2,4]triazolo[1,5-a]pyrimidin-2-amine] | >7 |
| Cc1cc(C2CCOC2)n2nc(NCc3cn(-c4ccccc4)nc3C)nc2n1 (centres unmarked) [Example 72, 5-Methyl-N-[(3-methyl-1-phenyl-1H-pyrazol-4-yl)methyl]-7-(oxolan-3-yl)-[1,2,4]triazolo[1,5-a]pyrimidin-2-amine] | >7 |
| CC(=O)N1CCC(c2cc(C)nc3nc(NCc4cccc(C(F)F)c4)nn23)CC1 [Example 20, 1-{4-[2-({[3-(Difluoromethyl)phenyl]methyl}amino)-5-methyl-[1,2,4]triazolo[1,5-a]pyrimidin-7-yl]piperidin-1-yl}ethan-1-one] | >7 |
| COc1ccc(CNc2nc3nc(C)cc(C4CCN(C(C)=O)CC4)n3n2)cc1C(F)F [Example 19, 1-{4-[2-({[3-(Difluoromethyl)-4-methoxyphenyl]methyl}amino)-5-methyl-[1,2,4]triazolo[1,5-a]pyrimidin-7-yl]piperidin-1-yl}ethan-1-one] | >7 |
| Cc1cc(C2CCOCC2)n2nc(NCc3cc(Cl)c(F)cc3F)nc2n1 [Example 80, N-[(5-Chloro-2,4-difluorophenyl)methyl]-5-methyl-7-(oxan-4-yl)-[1,2,4]triazolo[1,5-a]pyrimidin-2-amine] | >7 |
| Cc1cc(CNc2nc3nc(C)cc(C4CCOCC4)n3n2)cc(C)n1 [Example 53, N-[(2,6-Dimethylpyridin-4-yl)methyl]-5-methyl-7-(oxan-4-yl)-[1,2,4]triazolo[1,5-a]pyrimidin-2-amine] | >7 |
| Cc1cc(C2CCOCC2)n2nc(NCc3cccc(C(F)F)c3)nc2n1 [Example 23, N-{[3-(Difluoromethyl)phenyl]methyl}-5-methyl-7-(oxan-4-yl)-[1,2,4]triazolo[1,5-a]pyrimidin-2-amine] | >7 |
| COc1ccc(CNc2nc3nc(C)cc(C4(F)CCOCC4)n3n2)cc1 [Example 55, 7-(4-Fluorooxan-4-yl)-N-[(4-methoxyphenyl)methyl]-5-methyl-[1,2,4]triazolo[1,5-a]pyrimidin-2-amine] | >7 |
| Cc1cc(C2CCOCC2)n2nc(NCc3cccc(Br)c3)nc2n1 [Example 39, N-[(3-Bromophenyl)methyl]-5-methyl-7-(oxan-4-yl)-[1,2,4]triazolo[1,5-a]pyrimidin-2-amine] | >7 |
| Cc1cc(C2CCOCC2)n2nc(NCc3cn(C(C)C)nc3C)nc2n1 [Example 66, 5-Methyl-N-{[3-methyl-1-(propan-2-yl)-1H-pyrazol-4-yl]methyl}-7-(oxan-4-yl)-[1,2,4]triazolo[1,5-a]pyrimidin-2-amine] | >7 |

same assay, conditions: 200 nM FAM-cAMP substrate, 11-point half-log dose-response, read-out: PDE2 (PIC50)

| SMILES | pIC50 |
| --- | --- |
| Cc1cc(C2CC2)n2nc(NCc3ccc4c(c3)OCC4)nc2n1 [Example 3, 7-Cyclopropyl-N-((2,3-dihydrobenzofuran-6-yl)methyl)-5-methyl-[1,2,4]triazolo[1,5-a]pyrimidin-2-amine] | 5.00 to 6.00 |
| Cc1cc(C2CCOCC2)n2nc(NCc3cc(F)cc(F)c3)nc2n1 [Example 14, N-[(3,5-Difluorophenyl)methyl]-5-methyl-7-(oxan-4-yl)-[1,2,4]triazolo[1,5-a]pyrimidin-2-amine] | 6.00 to 7.00 |
| Cc1cc(C2CCOCC2)n2nc(NCc3ccccc3)nc2n1 [Example 33, N-Benzyl-5-methyl-7-(oxan-4-yl)-[1,2,4]triazolo[1,5-a]pyrimidin-2-amine] | 6.00 to 7.00 |
| Cc1cc(C2CCOCC2)n2nc(NCc3ccc4c(c3)OCCO4)nc2n1 [Example 16, N-(2,3-Dihydro-1,4-benzodioxin-6-ylmethyl)-5-methyl-7-(oxan-4-yl)-[1,2,4]triazolo[1,5-a]pyrimidin-2-amine] | 6.00 to 7.00 |
| COc1ccc(CNc2nc3nc(C)cc(C(C)C)n3n2)cc1 [Example 10, 7-Isopropyl-N-(4-methoxybenzyl)-5-methyl-[1,2,4]triazolo[1,5-a]pyrimidin-2-amine] | 5.00 to 6.00 |
